Data as given in US20230241257A1, “BIOTIN-MODIFIED DIMER AND USE THEREOF” (THE UNIVERSITY OF TOKYO, priority 2020, published 2023).

Key:
[1] = system: human stomach cancer cells (MKN-45); test: Experiment 9: pharmacokinetics (6 h) of Cupid-scFv antibody (24 h before)+^211At-psyche-BR in MKN-45 cancer-bearing mouse models; type: in vivo, mice (BALB/cSlc nu/nu); conditions: six hours after administration, tumor on Day 8 after transplantation
Description: The present experiment used human stomach cancer cells (MKN-45) expressing carcinoembryonic antigen (CEA). 9-week-old male immunodeficient mice (BALB/cSlc nu/nu) were used. MKN-45 cells (1×10^7/0.1 ml) were transplanted into the mice's subcutis on the right shoulder dorsal side to produce cancer-bearing mouse models. When the tumor volume became a predetermined size (on Day 8 after the transplantation), the Cupid-scFv antibody was administered 100 μmol/0.1 ml via the caudal vein of each mouse. Twenty-four hours after administration of the Cupid-scFv antibody, ^211At-psyche-BR (about 0.30 MBq/100 ml) was administered via the caudal vein of each mouse. […] After that, the weights of blood, plasma, urine, tumor, and normal tissues/organs were measured, and the radioactivity thereof was then measured using a γ counter. The amounts of the ^211At-psyche-BR (radioactivity) accumulated in the blood, plasma, urine, tumor, and normal tissues/organs were calculated. […] Regarding accumulation of the ^211At-psyche-BR in the thyroid gland, since the weight of the thyroid gland could not be precisely measured, it was shown that the rate (% ID) of the ^211At-psyche-BR accumulated in the thyroid gland in the administered ^211At-psyche-BR.

[2] = system: human stomach cancer cells (MKN-45); test: Experiment 2: pharmacokinetics of Cupid-scFv antibody (24 h before)+^211At-psyche-B in MKN-45 cancer-bearing mouse models; type: in vivo, mice (BALB/cSlc nu/nu)
Description: The present experiment used highly CEA-expressing human stomach cancer cells (MKN-45). 9-week-old male immunodeficient mice (BALB/cSlc nu/nu) were used. MKN-45 cells (1×10^7/0.1 ml) were transplanted into the mice's subcutis on the right shoulder dorsal side to produce MKN-45 cancer-bearing mouse models. The mice were divided into four groups when the tumor volume became a predetermined size (on Day 13 after the transplantation). A Cupid-scFv antibody was administered in 100 μmol/0.1 ml via the caudal vein of each mouse. Twenty-four hours after administration of the Cupid-scFv antibody, ^211At-psyche-B (about 0.25 MBq/100 ml) was administered via the caudal vein of the mice. One minute, 1 hour, 6 hours, and 24 hours after administration of the ^211At-psyche-B, the mice were euthanized by collecting whole blood from the heart of each mouse under isoflurane anesthesia, and tumor tissues and normal tissues/organs were then excised. Normal tissues/organs: skin (lower right limb), muscle (right gastrocnemius muscle), heart, lung, spleen, pancreas, white fat (upper portion of right side testis), testis (right side), stomach (without contents), small intestine, large intestine, liver, brown fat, submandibular gland, thyroid gland (together with trachea), bone (right femur), cerebrum, eyeballs (both sides), bladder, and urine; the remaining residues were divided into three equal parts, and the three equal parts were defined to be residue-1, residue-2, and residue-3. After that, the weights of blood, plasma, urine, tumor, and normal tissues/organs were measured, and the radioactivity thereof was then measured using a γ counter. The amounts of the ^211At-psyche-B (radioactivity) accumulated in the blood, plasma, urine, tumor, and normal tissues/organs were calculated. That is to say, the rates (% ID/g) of the ^211At-psyche-B accumulated per unit weight (g) of the blood, plasma, urine, tumor, and normal tissues/organs, in the administered ^211At-psyche-B, were shown. Regarding accumulation of the ^211At-psyche-B in the thyroid gland, since the weight of the thyroid gland could not be precisely measured, it was shown that the rate (% ID) of the ^211At-psyche-B accumulated in the thyroid gland in the administered ^211At-psyche-B.

## N=C1N[C@H]2[C@H](CS[C@H]2CCCCNC(=O)CCCCCC(=O)Nc2cc(NC(=O)CCCCCC(=O)NCCCC[C@@H]3SC[C@@H]4NC(=N)N[C@@H]43)cc(C(=O)NCCOCCOCCNC(=O)c3cccc([211At])c3)c2)N1 [^211At-psyche-BR]
[1]
  Accumulation in the tumor: 31.0±3.4 % ID/g

## N=C1N[C@H]2[C@H](CS[C@H]2CCCCC(=O)NCCCCCC(=O)Nc2cc(NC(=O)CCCCCNC(=O)CCCC[C@@H]3SC[C@@H]4NC(=N)N[C@@H]43)cc(C(=O)NCCOCCOCCNC(=O)c3cccc([211At])c3)c2)N1 [^211At-psyche-B]
[2]; after 1 minute
  Accumulation in the kidney: 29.3±1.5 % ID/g
  Accumulation in the liver: 17.4±2.3 % ID/g
  Accumulation in the lung: 15.9±1.7 % ID/g
  Accumulation in the spleen: 4.9±1.7 % ID/g
  Accumulation in the tumor: 0.6±0.1 % ID/g
  Clearance from the blood: 46.4±1.4 % ID/g
  tumor-to-blood ratio: 0.01±0.00
  tumor-to-muscle ratio: 1.5±0.3
[2]; after 1 hour
  Accumulation in the kidney: 14.2±1.3 % ID/g
  Accumulation in the liver: 13.6±1.4 % ID/g
  Accumulation in the lung: 14.7±3.6 % ID/g
  Accumulation in the spleen: 7.9±1.1 % ID/g
  Accumulation in the tumor: 3.2±0.4 % ID/g
  Clearance from the blood: 40.6±3.2 % ID/g
  tumor-to-blood ratio: 0.08±0.01
  tumor-to-muscle ratio: 5.2±1.0
[2]; after 6 hours
  Accumulation in the kidney: 9.8±0.7 % ID/g
  Accumulation in the liver: 16.0±1.4 % ID/g
  Accumulation in the lung: 11.2±0.9 % ID/g
  Accumulation in the spleen: 10.1±0.3 % ID/g
  Accumulation in the tumor: 11.8±1.5 % ID/g
  Clearance from the blood: 29.4±0.9 % ID/g
  tumor-to-blood ratio: 0.40±0.05
  tumor-to-muscle ratio: 14.0±0.9
[2]; after 24 h
  Accumulation in the thyroid gland: 0.16±0.06 % ID
[2]; after 24 hours
  Accumulation in the kidney: 4.7±0.8%
  Accumulation in the liver: 15.5±0.1%
  Accumulation in the lung: 4.2±0.5%
  Accumulation in the spleen: 9.6±2.4%
  Accumulation in the tumor: 16.3±4.1%
  Clearance from the blood: 6.2±1.3 % ID/g
  administered amount excreted (blood): 94%
  tumor-to-blood ratio: 2.63±0.10
  tumor-to-muscle ratio: 26.5±4.6
